Assays:
[1] = molecular target: ACHE (Homo sapiens, UniProt P22303); test: Off-target profiling panel; format: biochemical; settings: read-out: Inhibition by MBE1 at 10 μM (%)
[2] = tested on: HaCaT cells; test: Dose-titration cytotoxicity analysis; settings: 24 hour incubation, highest tested dose 10 μM
[3] = molecular target: 5HTT (Homo sapiens, UniProt P31645); test: Off-target profiling panel; format: binding; settings: read-out: Inhibition by MBE1 at 10 μM (%)
[4] = molecular target: H1 (Homo sapiens, UniProt P35367); test: Off-target profiling panel; format: binding; settings: read-out: Inhibition by MBE1 at 10 μM (%)
[5] = molecular target: 5HT1a (Homo sapiens, UniProt P08908); test: Off-target profiling panel; format: binding; settings: read-out: Inhibition by MBE1 at 10 μM (%)
[6] = molecular target: T1, MARCKSL1 (Homo sapiens, UniProt P49006); test: Thermal proteome profiling (TPP) in A375 cells; format: cell-based; settings: MARCKSL1, 1 uM
T1 construct: Treated A375 cells were harvested from 10 × 15 cm plates; endogenous in cells; host or cells: A375 melanoma cells

[7] = molecular target: M1 (Homo sapiens, UniProt P11229); test: biochemical; format: binding; settings: read-out: Inhibition by MBE1 at 10 μM (%)
[8] = molecular target: LCK (Homo sapiens, UniProt P06239); test: Off-target profiling panel; format: biochemical; settings: read-out: Inhibition by MBE1 at 10 μM (%)
[9] = molecular target: CB1 (Homo sapiens, UniProt P21554); test: Off-target profiling panel; format: binding; settings: read-out: Inhibition by MBE1 at 10 μM (%)
[10] = molecular target: D2 (Homo sapiens, UniProt P14416); test: Off-target profiling panel; format: binding; settings: read-out: Inhibition by MBE1 at 10 μM (%)
[11] = molecular target: op-kappa (Homo sapiens, UniProt P41145); test: Off-target profiling panel; format: binding; settings: read-out: Inhibition by MBE1 at 10 μM (%)
[12] = molecular target: hNav1.5 (Homo sapiens, UniProt Q14524); test: Off-target profiling panel; format: cell-based; settings: read-out: Inhibition by MBE1 at 10 μM (%)
[13] = molecular target: Eta antagonist (Homo sapiens, UniProt P25101); test: Off-target profiling panel; format: cell-based; settings: read-out: Inhibition by MBE1 at 10 μM (%)
[14] = molecular target: COX1 (Homo sapiens, UniProt P23219); test: Off-target profiling panel; format: biochemical; settings: read-out: Inhibition by MBE1 at 10 μM (%)
[15] = tested on: MDA-MB-468 cells; settings: MDA-MB-468, 24 hour incubation, highest tested dose 10 μM
[16] = tested on: panel of 23 human cancer cell lines; test: Aldefluor assay, panel of 23 human cancer cell lines; format: cell-based; settings: 100 nM; most solid cancer types except liver cancer
Method: To determine the breadth of ALDH1A3 activity across human cancers and assess the target engagement of these discovered compounds across tumor models, we profiled a panel of 23 human cancer cell lines with the Aldefluor assay. […] Next, we assessed whether ALDH1A3 affects cell growth across this broad panel of cancer types by testing proliferation for each cell line with and without MBE1.5.
In addition, cells were suspended at a concentration of 100,000 cells per mL. Finally, DMSO was added to at 1% final in all cells to improve kinetics of the assay. For compound titrations, concentrated compound stock was added first to tubes and a uniform Aldefluor buffer containing the cell suspension was added to dilute to final volumes. Cells were analyzed by a BD LSRII for flow cytometry and were sorted using a FACSAria Fusion cell sorter (BD Biosciences) equipped with a 70 micron nozzle. Sample and sort collection tubes were kept at 4°C. […] DAPI was used as a live-dead indicator.

[17] = molecular target: T2, purified human ALDH1A3 (Homo sapiens, UniProt P47895); test: Nanoscale differential scanning fluorimetry (DSF); format: binding; settings: 10 and 100 μM
T2 construct: made in house; host or cells: BL21-DE3 E. coli

[18] = 7-day repeat-dose study, oral gavage; format: in vivo, mouse; settings: 50 mg/kg twice daily oral gavage
Method: In order to accommodate in vivo dosing and to also determine any potential toxic effects of MBE1.5, we performed a 7-day repeat-dose study administering a suspension of MBE1.5 at 50 mg/kg twice daily via oral gavage.
Finally, to establish a pharmacokinetic profile throughout dosing, MBE1.5 was analyzed in serum 12 h post dose on day 1 and day 7. […] To accommodate consistent plasma concentrations without accumulation, MBE1.5 was formulated to a lower concentration in mouse diet that would administer a dose equivalent to 25 mg/kg daily. This formulated diet was provided to mice for 5 days, at which point serum was analyzed for MBE1.5 concentration at 6:30 a.m. and 4:00 p.m. on day 5 to capture differences in mouse feeding cycles.
Figure S5. Specificity, tolerability and pharmacokinetic analysis of MBE1.5 in […]
MCF7 or SUM159 cells and a dose titration of MBE1.5 was performed against each cell line in the Aldelfuor assay to confirm ALDH1A3 isoform specificity for MBE1.5. n= 3 […]
proteome profiling in A375 cells was performed in DMSO and at two concentrations of MBE1 using a 10 temperature melting curve for isolation, followed by proteomic analysis, filtering and mapping peptide frequency as a composite melting curve, n=3 biological replicates per condition-temperature. […] ALDH1A3 or NPTN were assessed by WB to confirm the stabilization of ALDH1A3 but not NPTN (55kD, as indicated by arrow) by MBE1. […]
analysis of MBE1.5 following identification of proper formulations and administration to fasted male CD1 mice at 1 mg/kg intravenous (IV) and 10 mg/kg oral gavage (PO). n = 3 mice per arm. G-I, MBE1.5 administered as a suspension to C57BL/6 male mice via bi-daily PO administration for seven days as compared to the vehicle was tracked for body weight (G), complete blood count at day 7 (H) and plasma concentrations of MBE1.5 were analyzed at 12 hours post Day 1 dosing and 12 hours following the last dose (I). n = 4 male mice per arm. […] Upon acclimation, serum MBE1.5 concentrations were calculated following blood draws at 6:30 am and 4 pm. n = 5 mice per arm. […]

T2 sequence (P47895 whole entry): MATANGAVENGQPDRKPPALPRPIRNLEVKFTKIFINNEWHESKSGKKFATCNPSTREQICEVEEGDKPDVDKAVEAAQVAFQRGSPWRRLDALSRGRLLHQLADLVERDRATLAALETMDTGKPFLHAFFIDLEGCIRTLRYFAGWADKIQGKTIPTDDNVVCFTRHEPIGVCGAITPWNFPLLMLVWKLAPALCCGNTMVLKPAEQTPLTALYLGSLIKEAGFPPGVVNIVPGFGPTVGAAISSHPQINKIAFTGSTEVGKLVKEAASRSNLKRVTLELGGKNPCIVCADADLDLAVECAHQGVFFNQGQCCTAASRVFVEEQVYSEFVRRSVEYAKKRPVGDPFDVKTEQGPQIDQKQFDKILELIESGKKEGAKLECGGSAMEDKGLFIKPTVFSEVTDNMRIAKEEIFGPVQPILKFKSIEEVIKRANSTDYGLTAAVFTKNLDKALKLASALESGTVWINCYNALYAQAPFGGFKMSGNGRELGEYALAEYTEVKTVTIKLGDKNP
Sequence of Eta antagonist (P25101 21-427): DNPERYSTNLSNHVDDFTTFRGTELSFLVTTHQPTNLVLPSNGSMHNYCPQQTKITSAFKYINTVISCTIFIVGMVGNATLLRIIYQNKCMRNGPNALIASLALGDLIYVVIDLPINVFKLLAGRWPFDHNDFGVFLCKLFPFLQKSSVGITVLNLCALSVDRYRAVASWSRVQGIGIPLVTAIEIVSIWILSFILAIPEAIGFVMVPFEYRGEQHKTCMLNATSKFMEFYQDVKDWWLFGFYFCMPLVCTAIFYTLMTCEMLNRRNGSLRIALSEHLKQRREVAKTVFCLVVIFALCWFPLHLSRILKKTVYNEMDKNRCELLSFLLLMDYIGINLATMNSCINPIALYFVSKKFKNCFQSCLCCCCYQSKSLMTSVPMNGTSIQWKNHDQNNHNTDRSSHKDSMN
Sequence of op-kappa (P41145 whole entry): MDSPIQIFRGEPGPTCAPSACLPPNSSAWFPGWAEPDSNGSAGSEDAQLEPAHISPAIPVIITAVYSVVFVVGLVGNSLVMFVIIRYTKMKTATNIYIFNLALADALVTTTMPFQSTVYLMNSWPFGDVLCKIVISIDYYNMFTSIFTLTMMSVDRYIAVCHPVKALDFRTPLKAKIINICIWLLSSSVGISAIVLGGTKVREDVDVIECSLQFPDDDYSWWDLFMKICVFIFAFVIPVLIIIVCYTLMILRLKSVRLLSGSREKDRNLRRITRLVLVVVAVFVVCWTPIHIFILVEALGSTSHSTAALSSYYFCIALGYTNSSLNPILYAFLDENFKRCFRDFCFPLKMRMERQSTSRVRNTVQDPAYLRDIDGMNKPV
Sequence of COX1 (P23219 24-599): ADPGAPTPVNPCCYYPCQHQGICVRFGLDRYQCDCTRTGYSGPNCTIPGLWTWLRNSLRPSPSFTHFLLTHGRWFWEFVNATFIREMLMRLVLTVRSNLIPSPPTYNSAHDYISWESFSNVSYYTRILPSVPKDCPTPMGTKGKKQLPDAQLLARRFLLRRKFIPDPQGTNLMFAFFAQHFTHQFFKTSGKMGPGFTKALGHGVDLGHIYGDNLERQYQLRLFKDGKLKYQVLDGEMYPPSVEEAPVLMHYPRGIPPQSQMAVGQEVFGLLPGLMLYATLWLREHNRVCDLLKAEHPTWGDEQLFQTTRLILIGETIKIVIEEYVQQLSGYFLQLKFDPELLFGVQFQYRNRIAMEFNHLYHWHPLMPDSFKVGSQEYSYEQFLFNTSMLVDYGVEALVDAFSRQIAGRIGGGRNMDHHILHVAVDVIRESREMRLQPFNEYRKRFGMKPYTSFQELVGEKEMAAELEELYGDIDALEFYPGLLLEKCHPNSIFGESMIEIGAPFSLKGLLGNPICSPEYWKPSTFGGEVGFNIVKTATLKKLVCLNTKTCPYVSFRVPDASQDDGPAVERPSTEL
Sequence of CB1 (P21554 whole entry): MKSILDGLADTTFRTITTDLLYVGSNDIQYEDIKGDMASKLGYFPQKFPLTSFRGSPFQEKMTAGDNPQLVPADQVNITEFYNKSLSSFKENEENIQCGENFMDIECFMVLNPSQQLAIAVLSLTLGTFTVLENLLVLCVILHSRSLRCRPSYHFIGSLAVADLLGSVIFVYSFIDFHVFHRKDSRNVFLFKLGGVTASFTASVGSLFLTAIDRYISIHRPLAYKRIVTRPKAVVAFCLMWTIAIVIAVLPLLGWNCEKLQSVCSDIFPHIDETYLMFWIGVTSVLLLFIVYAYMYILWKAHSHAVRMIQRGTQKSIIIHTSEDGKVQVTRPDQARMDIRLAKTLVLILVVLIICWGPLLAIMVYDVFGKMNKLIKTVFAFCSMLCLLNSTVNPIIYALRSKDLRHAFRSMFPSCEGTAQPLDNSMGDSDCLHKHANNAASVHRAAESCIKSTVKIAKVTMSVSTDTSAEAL
Sequence of hNav1.5 (Q14524 whole entry): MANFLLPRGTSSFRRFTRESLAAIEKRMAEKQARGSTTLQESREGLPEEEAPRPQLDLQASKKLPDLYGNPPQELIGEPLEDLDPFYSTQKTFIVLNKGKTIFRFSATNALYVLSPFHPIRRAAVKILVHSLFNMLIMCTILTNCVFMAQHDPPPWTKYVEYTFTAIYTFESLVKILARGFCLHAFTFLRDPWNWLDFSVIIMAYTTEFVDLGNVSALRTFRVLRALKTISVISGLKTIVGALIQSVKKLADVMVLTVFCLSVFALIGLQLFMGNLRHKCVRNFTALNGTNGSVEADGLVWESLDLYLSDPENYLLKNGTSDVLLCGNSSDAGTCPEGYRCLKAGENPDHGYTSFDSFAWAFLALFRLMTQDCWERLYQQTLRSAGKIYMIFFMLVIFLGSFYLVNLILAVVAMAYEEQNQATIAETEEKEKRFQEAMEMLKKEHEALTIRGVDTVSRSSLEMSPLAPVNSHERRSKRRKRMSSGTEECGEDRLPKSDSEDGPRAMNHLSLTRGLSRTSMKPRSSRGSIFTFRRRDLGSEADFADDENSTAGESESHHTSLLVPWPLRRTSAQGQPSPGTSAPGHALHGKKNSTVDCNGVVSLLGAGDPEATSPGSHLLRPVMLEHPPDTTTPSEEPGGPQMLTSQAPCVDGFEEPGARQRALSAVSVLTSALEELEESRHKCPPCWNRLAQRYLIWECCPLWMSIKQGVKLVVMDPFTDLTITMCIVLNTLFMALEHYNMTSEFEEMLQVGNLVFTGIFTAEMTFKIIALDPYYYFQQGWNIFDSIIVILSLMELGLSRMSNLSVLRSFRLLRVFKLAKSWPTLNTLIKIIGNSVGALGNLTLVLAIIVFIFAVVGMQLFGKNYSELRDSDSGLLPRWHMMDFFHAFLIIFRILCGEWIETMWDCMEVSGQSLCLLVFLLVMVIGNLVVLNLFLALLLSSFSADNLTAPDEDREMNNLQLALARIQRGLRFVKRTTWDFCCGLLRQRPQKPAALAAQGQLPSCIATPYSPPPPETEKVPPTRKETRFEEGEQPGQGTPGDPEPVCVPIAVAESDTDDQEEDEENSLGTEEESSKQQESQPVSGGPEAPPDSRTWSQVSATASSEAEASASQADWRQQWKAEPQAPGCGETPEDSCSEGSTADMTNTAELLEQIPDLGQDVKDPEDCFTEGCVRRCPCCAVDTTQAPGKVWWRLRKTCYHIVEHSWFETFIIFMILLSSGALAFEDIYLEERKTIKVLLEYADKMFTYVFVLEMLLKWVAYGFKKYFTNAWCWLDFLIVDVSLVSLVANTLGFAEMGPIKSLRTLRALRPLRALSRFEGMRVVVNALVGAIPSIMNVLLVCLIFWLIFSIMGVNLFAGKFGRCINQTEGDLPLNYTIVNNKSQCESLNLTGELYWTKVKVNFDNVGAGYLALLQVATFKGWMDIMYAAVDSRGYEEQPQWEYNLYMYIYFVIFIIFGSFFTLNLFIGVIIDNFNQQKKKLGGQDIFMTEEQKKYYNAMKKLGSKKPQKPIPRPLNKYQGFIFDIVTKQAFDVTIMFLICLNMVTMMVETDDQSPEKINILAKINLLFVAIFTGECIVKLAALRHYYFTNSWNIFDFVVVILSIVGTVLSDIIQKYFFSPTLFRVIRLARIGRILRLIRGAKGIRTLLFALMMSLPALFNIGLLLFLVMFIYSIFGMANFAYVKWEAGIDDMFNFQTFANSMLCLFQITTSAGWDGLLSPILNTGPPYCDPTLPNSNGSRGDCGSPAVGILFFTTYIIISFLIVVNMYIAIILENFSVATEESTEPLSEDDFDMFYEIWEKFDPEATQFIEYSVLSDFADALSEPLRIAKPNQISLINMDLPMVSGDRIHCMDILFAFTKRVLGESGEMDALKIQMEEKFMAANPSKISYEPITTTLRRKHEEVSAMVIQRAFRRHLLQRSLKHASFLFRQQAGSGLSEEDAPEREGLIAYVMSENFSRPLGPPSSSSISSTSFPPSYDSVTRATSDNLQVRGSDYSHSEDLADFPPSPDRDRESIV
Sequence of 5HT1a (P08908 whole entry): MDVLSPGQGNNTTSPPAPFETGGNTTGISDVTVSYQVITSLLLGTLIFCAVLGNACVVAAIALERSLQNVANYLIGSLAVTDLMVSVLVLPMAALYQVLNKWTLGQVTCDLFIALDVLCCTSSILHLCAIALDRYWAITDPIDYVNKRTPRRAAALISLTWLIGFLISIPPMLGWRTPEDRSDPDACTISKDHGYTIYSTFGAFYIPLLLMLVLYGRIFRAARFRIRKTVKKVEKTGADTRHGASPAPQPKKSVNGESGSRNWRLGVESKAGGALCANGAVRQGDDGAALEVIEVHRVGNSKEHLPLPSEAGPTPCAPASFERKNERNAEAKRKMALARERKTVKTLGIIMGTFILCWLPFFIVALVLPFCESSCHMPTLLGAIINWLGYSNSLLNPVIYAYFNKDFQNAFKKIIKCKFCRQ
T1 sequence (P49006 whole entry): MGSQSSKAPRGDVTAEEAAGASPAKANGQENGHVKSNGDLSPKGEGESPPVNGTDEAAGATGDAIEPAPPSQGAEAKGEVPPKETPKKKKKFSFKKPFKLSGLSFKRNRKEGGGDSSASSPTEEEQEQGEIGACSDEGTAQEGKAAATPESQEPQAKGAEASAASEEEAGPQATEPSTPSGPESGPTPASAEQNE

Row | thermal stabilization of purified ALDH1A3 [17] [°C] | serum level 12 h post dose, day 1 vs day 7 (in words) [18] | blood profile (complete blood count) vs vehicle (in words) ([18]; day 7) | Compound | inhibition at 10 µM [1] [%] | nonspecific cytotoxicity (in words) [2] | inhibition at 10 µM [3] [%] | inhibition at 10 µM [4] [%] | inhibition at 10 µM [5] [%] | 1uM MBE1 Tm [6] | inhibition at 10 µM [7] [%] | inhibition at 10 µM [8] [%] | inhibition at 10 µM [9] [%] | inhibition at 10 µM [10] [%] | inhibition at 10 µM [11] [%] | inhibition at 10 µM [12] [%] | inhibition at 10 µM [13] [%] | inhibition at 10 µM [14] [%] | nonspecific cytotoxicity (in words) [15] | inhibition of Aldefluor activity across cancer cell line panel (in words) [16] | body weight vs vehicle (in words) ([18]; 7 days, C57BL/6 male mice)
1 |  |  |  | CCc1cnccc1C(=O)Nc1cc2c(cc1F)NC(=O)CC2 [MBE1, 3-ethyl-N-(7-fluoro-2-oxo-3,4-dihydro-1H-quinolin-6-yl)pyridine-4-carboxamide] | 5.81 | nontoxic | -24.2 | -11.7 | 3.78 | 64 | -7.68 | -2.81 | -7.11 | 1.45 | -12.6 | -0.59 | 4.57 | -2.65 | nontoxic |  | 
2 | > 8.5 | accumulated | no detectable difference | CCc1ccccc1C(=O)Nc1cc2c(cc1F)NC(=O)CC2 [MBE1.5, 2-ethyl-N-(7-fluoro-2-oxo-3,4-dihydro-1H-quinolin-6-yl)benzamide] |  |  |  |  |  |  |  |  |  |  |  |  |  |  |  | potently inhibited Aldefluor activity | no difference
